Data published in patent US8686022B2, “7-(piperazine-1-ymethyl)-1H-indole-2-carboxylic acid (phenyl)-amide derivatives and allied compounds as p38 MAP kinase inhibitors for the treatment of respiratory diseases” (Boehringer Ingelheim International GmbH, priority 2008, dated 2014).
Converted amounts (≈) assume the structure as drawn.

Tests used:
p38 MAP-kinase = p38 MAP-kinase (Homo sapiens, UniProt Q16539); assay: p38 MAP-kinase enzymatic assay (phosphorylation of GST-tagged ATF2, chemoluminescence); type: biochemical; conditions: inhibitor concentration 1 μM; activated p38 MAP-kinase 1 nM; ATP 100 μM; read-out: p38 (% Inh @ 1 μM)
Outline: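 Activated p38 MAP-kinase (1 nM) preincubated 4 h at ambient temperature with 1 μM compound in HEPES pH 7, MgCl2, DTT, TWEEN20, then reacted 1 h with 10 nM GST-ATF2 and 100 μM ATP. Phospho-ATF2 detected by AlphaScreen-type bead luminescence; percent inhibition at 1 μM versus uninhibited and kinase-free controls.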

cytochrome P450 2C9 = cytochrome P450 2C9 (Homo sapiens, UniProt P11712); assay: Determining the cyp2C9 activity (O-demethylation of [O-methyl-14C]-naproxen); type: in vitro ADME; conditions: human recombinant cytochrome P450 2C9; 37° C.; <0.4 μM when inhibition >50% at lowest concentration; read-out: CYP 2C9 IC50
Outline: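 Recombinant CYP2C9 (40 pmol/ml) with 80 μM [O-methyl-14C]-naproxen in 0.1 M Tris, 5 mM MgCl2; test compound at 50, 10, 2 and 0.4 μM in duplicate. Started with 1 mM NADPH, stopped after 15 min with TCA; 14C-formaldehyde separated by solid-phase extraction and counted by scintillation. IC50 from least-squares fit.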

[1] = Determining the solubility (saturated solution in McIlvaine buffer pH 7.4, UV spectroscopy); type: physicochemical; conditions: pH 7.4, aqueous buffer, thermodynamic from solid, shaken 2 hours, 0.75 mg solid in 0.75 ml
Outline: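 Excess solid (0.75 mg per 0.75 ml) shaken 2 h in McIlvaine buffer pH 7.4, then filtered through 0.45 μm PTFE membrane with first drops discarded. Dissolved amount measured by UV spectroscopy.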

Sequence of p38 MAP-kinase (Q16539 whole entry): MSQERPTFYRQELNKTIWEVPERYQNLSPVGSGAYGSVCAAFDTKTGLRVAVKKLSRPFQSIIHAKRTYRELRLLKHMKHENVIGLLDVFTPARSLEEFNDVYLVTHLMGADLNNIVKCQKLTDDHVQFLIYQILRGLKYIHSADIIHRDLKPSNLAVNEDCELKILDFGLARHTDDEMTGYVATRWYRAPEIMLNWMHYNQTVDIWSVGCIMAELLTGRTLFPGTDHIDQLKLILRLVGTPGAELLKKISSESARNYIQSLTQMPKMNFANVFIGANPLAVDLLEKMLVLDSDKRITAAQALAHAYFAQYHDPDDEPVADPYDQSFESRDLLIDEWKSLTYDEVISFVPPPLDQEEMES
Sequence of cytochrome P450 2C9 (P11712 whole entry): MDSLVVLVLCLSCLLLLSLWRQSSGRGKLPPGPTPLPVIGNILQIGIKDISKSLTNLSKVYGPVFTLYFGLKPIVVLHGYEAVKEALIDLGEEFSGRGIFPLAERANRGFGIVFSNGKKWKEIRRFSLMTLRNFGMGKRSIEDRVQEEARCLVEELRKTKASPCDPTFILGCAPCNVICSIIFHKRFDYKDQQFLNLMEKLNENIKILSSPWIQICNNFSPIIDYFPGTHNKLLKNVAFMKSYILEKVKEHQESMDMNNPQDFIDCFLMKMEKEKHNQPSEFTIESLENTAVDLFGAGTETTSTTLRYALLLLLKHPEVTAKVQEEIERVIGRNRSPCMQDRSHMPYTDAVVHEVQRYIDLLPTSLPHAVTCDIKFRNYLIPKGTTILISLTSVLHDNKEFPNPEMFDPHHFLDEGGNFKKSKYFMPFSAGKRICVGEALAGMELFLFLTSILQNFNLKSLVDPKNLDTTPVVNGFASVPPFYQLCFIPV

SMILES | inhibition at 1 µM (p38 MAP-kinase) [%] | IC50 (cytochrome P450 2C9) [µM] | solubility at 2 h [1] [µg/mL]
CCC(C)c1cc(NC(=O)c2cc3cccc(CN4CCN(C(=O)[C@@H]5CCCN5C)CC4)c3n2C)c(OC)c(NS(C)(=O)=O)c1 (stereo partly drawn) [11(1), 1-methyl-7-[4-((2S)-1-methyl-pyrrolidine-2-carbonyl)-piperazin-1-ylmethyl]-1H-indole-2-carboxylic acid-(5-sec-butyl-3-methanesulphonylamino-2-methoxy-phenyl)-amide] | 13.2 | 2.65 | > 1000
COc1c(NC(=O)c2cc3cccc(CN4CCN(C(=O)[C@@H]5CCCN5C)CC4)c3n2C)cc(C(C)C)cc1NS(C)(=O)=O [11(2), (S)-1-methyl-7-[4-(1-methyl-pyrrolidine-2-carbonyl)-piperazin-1-ylmethyl]-1H-indole-2-carboxylic acid-(5-isopropyl-3-methanesulphonylamino-2-methoxy-phenyl)-amide] | 18 | 10.4 | > 1000
COc1c(NC(=O)c2cc3cccc(CN4CCN(C(=O)[C@@H]5CCCN5C)CC4)c3n2C)cc(C(C)(C)C)cc1S(C)(=O)=O [11(4), (S)-1-methyl-7-[4-(1-methyl-pyrrolidine-2-carbonyl)-piperazin-1-ylmethyl]-1H-indole-2-carboxylic acid-(5-tert-butyl-3-methanesulphonyl-2-methoxy-phenyl)-amide] | 99.5 | 0.46 | 43 (≈ 68.9 µM)
COc1c(CS(C)(=O)=O)cc(C(C)(C)C)cc1NC(=O)c1cc2cccc(CN3CCN(C(=O)[C@@H]4CCCN4C)CC3)c2n1C [11(5), (S)-1-methyl-7-[4-(1-methyl-pyrrolidine-2-carbonyl)-piperazin-1-ylmethyl]-1H-indole-2-carboxylic acid-(5-tert-butyl-3-methanesulphonylmethyl-2-methoxy-phenyl)-amide] | 99.6 | 2.34 | 53 (≈ 83.1 µM)
COc1c(C[S+](C)[O-])cc(C(C)(C)C)cc1NC(=O)c1cc2cccc(CN3CCN(C(=O)[C@@H]4CCCN4C)CC3)c2n1C (stereo partly drawn) [11(6), 1-methyl-7-[4-((2S)-1-methyl-pyrrolidine-2-carbonyl)-piperazin-1-ylmethyl]-1H-indole-2-carboxylic acid-(5-tert-butyl-3-methanesulphinylmethyl-2-methoxy-phenyl)-amide] | 99.6 | 3.18 | 680 (≈ 1090 µM)
CCOc1c(NC(=O)c2cc3cccc(CN4CCN(C(=O)[C@@H]5CCCN5C)CC4)c3n2C)cc(C(C)(C)C)cc1NS(C)(=O)=O [11(7), (S)-1-methyl-7-[4-(1-methyl-pyrrolidine-2-carbonyl)-piperazin-1-ylmethyl]-1H-indole-2-carboxylic acid-(5-tert-butyl-3-methanesulphonylamino-2-ethoxy-phenyl)-amide] | 99.3 | 0.41 | 110 (≈ 168 µM)
CCCC(=O)Nc1cc(C(C)(C)C)cc(NC(=O)c2cc3cccc(CN4CCN(C(=O)[C@@H]5CCCN5C)CC4)c3n2C)c1OC [12(1), (S)-1-methyl-7-[4-(1-methyl-pyrrolidine-2-carbonyl)-piperazin-1-ylmethyl]-1H-indole-2-carboxylic acid-(5-tert-butyl-3-butyrylamino-2-methoxy-phenyl)-amide] | 87.7 | 0.96 | 44 (≈ 69.7 µM)
COc1c(NC(C)=O)cc(C(C)(C)C)cc1NC(=O)c1cc2cccc(CN3CCN(C(=O)[C@@H]4CCCN4C)CC3)c2n1C [12(2), (S)-1-methyl-7-[4-(1-methyl-pyrrolidine-2-carbonyl)-piperazin-1-ylmethyl]-1H-indole-2-carboxylic acid-(3-acetylamino-5-tert-butyl-2-methoxy-phenyl)-amide] | 98.2 | 3.46 | 630 (≈ 1050 µM)
COc1c(NC(=O)c2cc3cccc(CN4CCN(C(=O)[C@@H]5CCCN5C)CC4)c3n2C)cc(C(C)(C)C)cc1NC(=O)C(C)C [12(3), (S)-1-methyl-7-[4-(1-methyl-pyrrolidine-2-carbonyl)-piperazin-1-ylmethyl]-1H-indole-2-carboxylic acid-(5-tert-butyl-3-isobutyrylamino-2-methoxy-phenyl)-amide] | 97.3 | 2.15 | 91 (≈ 144 µM)
COc1c(NC(=O)c2cc3cccc(CN4CCN(C(=O)[C@@H]5CCCN5C)CC4)c3n2C)cc(C(C)(C)C)cc1NC(=O)C1CC1 [12(4), (S)-1-methyl-7-[4-(1-methyl-pyrrolidine-2-carbonyl)-piperazin-1-ylmethyl]-1H-indole-2-carboxylic acid-[5-tert-butyl-3-(cyclopropanecarbonyl-amino)-2-methoxy-phenyl]-amide] | 96.4 | 0.65 | 59 (≈ 93.8 µM)
COc1c(NC(=O)c2cc3cccc(CN4CCN(C(=O)[C@@H]5CCCN5C)CC4)c3n2C)cc(C(C)(C)C)cc1NS(=O)(=O)C1CC1 [13(1), (S)-1-methyl-7-[4-(1-methyl-pyrrolidine-2-carbonyl)-piperazin-1-ylmethyl]-1H-indole-2-carboxylic acid-(5-tert-butyl-3-cyclopropanesulphonylamino-2-methoxy-phenyl)-amide] | 99.3 | 0.67 | 12 (≈ 18 µM)
COc1c(NC(=O)c2cc3cccc(CN4CCN(C(=O)[C@@H]5CCCN5C)CC4)c3n2C)cc(C(F)(F)F)cc1NS(C)(=O)=O [14(1), (S)-1-methyl-7-[4-(1-methyl-pyrrolidine-2-carbonyl)-piperazin-1-ylmethyl]-1H-indole-2-carboxylic acid-(3-methanesulphonylamino-2-methoxy-5-trifluoromethyl-phenyl)-amide] | 97.9 | 5.27 | 97 (≈ 149 µM)
COc1c(NC(=O)c2cc3cccc(CN4CCN(C(=O)C5CCN(C)CC5)CC4)c3n2C)cc(C(C)(C)C)cc1NS(C)(=O)=O [Example 1, 1-methyl-7-[4-(1-methyl-piperidine-4-carbonyl)-piperazin-1-ylmethyl]-1H-indole-2-carboxylic acid(5-tert-butyl-3-methanesulphonylamino-2-methoxy-phenyl)-amide] | 98.9 | 2.42 | 360 (≈ 551 µM)
COc1c(NC(=O)c2cc3cccc(CN4CCN(C(=O)N5CC[C@@H](N(C)C)C5)CC4)c3n2C)cc(C(C)(C)C)cc1NS(C)(=O)=O [Example 2, (R)-7-[4-(3-dimethylamino-pyrrolidine-1-carbonyl)-piperazin-1-ylmethyl]-1-methyl-1H-indole-2-carboxylic acid(5-tert-butyl-3-methanesulohonylamino-2-methoxy-phenyl)-amide] | 99.1 | 1.29 | 10 (≈ 15 µM)
COc1c(NC(=O)c2cc3cccc(CN4CCN(C(=O)C5CNC5)CC4)c3n2C)cc(C(C)(C)C)cc1NS(C)(=O)=O [Example 3, 7-[4-(azetidine-3-carbonyl)-piperazin-1-ylmethyl]-1-methyl-1H-indole-2-carboxylic acid (5-tert-butyl-3-methanesulphonylamino-2-methoxy-phenyl)-amide] | 99 | 1.26 | 85 (≈ 139 µM)
COc1c(NC(=O)c2cc3cccc(CN4CCN(C(=O)C5CCCN(C)C5)CC4)c3n2C)cc(C(C)(C)C)cc1NS(C)(=O)=O (stereo not drawn) [Example 4, 1-methyl-7-[4-(1-methyl-piperidine-3-carbonyl)-piperazin-1-ylmethyl]-1H-indole-2-carboxylic acid (5-tert-butyl-3-methanesulphonylamino-2-methoxy-phenyl)-amide] | 99.4 | 0.44 | 78 (≈ 119 µM)
COc1c(NC(=O)c2cc3cccc(CN4CCN(C(=O)[C@H]5CCN(C)C5)CC4)c3n2C)cc(C(C)(C)C)cc1NS(C)(=O)=O [Example 5, (S)-1-methyl-7-[4-(1-methyl-pyrrolidine-3-carbonyl)-piperazin-1-ylmethyl]-1H-indole-2-carboxylic acid (5-tert-butyl-3-methanesulphonylamino-2-methoxy-phenyl)-amide] | 98.6 | 1.15 | 620 (≈ 971 µM)
COc1c(NC(=O)c2cc3cccc(CN4CCN(C(=O)CN5CCC(N(C)C)CC5)CC4)c3n2C)cc(C(C)(C)C)cc1NS(C)(=O)=O [Example 6, 7-{4-[2-(4-dimethylamino-piperidin-1-yl)-acetyl]-piperazin-1-ylmethyl}-1-methyl-1H-indole-2-carboxylic acid-(5-tert-butyl-3-methanesulphonylamino-2-methoxy-phenyl)-amide] | 98.6 | 3.43 | > 1000
COc1c(NC(=O)c2cc3cccc(CN4CCN(C(=O)CN5CCNCC5)CC4)c3n2C)cc(C(C)(C)C)cc1NS(C)(=O)=O [Example 7, 1-methyl-7-[4-(2-piperazin-1-yl-acetyl)-piperazin-1-ylmethyl]-1H-indole-2-carboxylic acid-(5-tert-butyl-3-methanesulphonylamino-2-methoxy-phenyl)-amide] | 98.7 | 5.32 | 110 (≈ 168 µM)
